pIC50: −log10 of the molar value.
Target: T1, Mushroom tyrosinase (Agaricus bisporus, UniProt C7FF04)
T1 construct: purchased Sigma-Aldrich (Shanghai, China)
Experiment: Tyrosinase inhibitory activity assay (L-DOPA, absorbance 475 nm)
Format: biochemical
Details: for inhibition at 32 µM: initial concentration of 32 μM
Protocol: The tyrosinase inhibitory activities of compounds 5a~5z were determined according to previous reports. In brief, 10 μL of compound was added into 140 μL of tyrosinase, incubated for 5 min at room temperature. Then, 50 μL of L-DOPA was added, followed by the measurement of absorbance change at 475 nm. The inhibition rate at different concentrations was calculated and compared to the blank control.

T1 sequence (C7FF04 1-392): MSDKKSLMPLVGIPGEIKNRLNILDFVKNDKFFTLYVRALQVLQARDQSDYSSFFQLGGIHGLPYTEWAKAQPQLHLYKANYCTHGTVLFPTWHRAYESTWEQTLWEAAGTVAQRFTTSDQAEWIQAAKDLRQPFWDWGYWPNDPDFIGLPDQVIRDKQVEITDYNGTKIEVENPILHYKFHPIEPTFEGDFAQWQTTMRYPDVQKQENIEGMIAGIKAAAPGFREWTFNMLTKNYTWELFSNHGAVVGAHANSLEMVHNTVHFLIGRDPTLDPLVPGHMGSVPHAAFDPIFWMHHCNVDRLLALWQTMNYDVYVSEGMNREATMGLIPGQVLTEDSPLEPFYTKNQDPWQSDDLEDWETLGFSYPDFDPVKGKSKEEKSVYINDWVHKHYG

Row | SMILES | inhibition at 32 µM [%] | pIC50
1 | O=C(CN1C(=O)S/C(=C\c2cccc(O)c2)C1=O)NCCc1c[nH]c2ccccc12 [5u] | 36.2 | –
2 | O=C(CN1C(=O)S/C(=C\c2cccc(Cl)c2)C1=O)NCCc1c[nH]c2ccccc12 [5i] | 37.6 | –
3 | COc1ccc(/C=C2\SC(=O)N(CC(=O)NCCc3c[nH]c4ccccc34)C2=O)cc1 [5s] | 1 | –
4 | O=C(CN1C(=O)S/C(=C\c2ccccc2Br)C1=O)NCCc1c[nH]c2ccccc12 [5k] | 31.7 | –
5 | O=C(CN1C(=O)S/C(=C\c2cccc(Br)c2)C1=O)NCCc1c[nH]c2ccccc12 [5l] | > 70 | 4.88
6 | O=C(CN1C(=O)S/C(=C\c2ccccc2F)C1=O)NCCc1c[nH]c2ccccc12 [5e] | 16.5 | –
7 | O=C(CN1C(=O)S/C(=C\c2cccc(F)c2)C1=O)NCCc1c[nH]c2ccccc12 [5f] | 32.6 | –
8 | O=C(CN1C(=O)S/C(=C\c2ccc([N+](=O)[O-])cc2)C1=O)NCCc1c[nH]c2ccccc12 [5z] | 19.1 | –
9 | O=C(CN1C(=O)S/C(=C\c2ccccc2O)C1=O)NCCc1c[nH]c2ccccc12 [5t] | 26.9 | –
10 | O=C(CN1C(=O)S/C(=C\c2ccc(C(F)(F)F)cc2)C1=O)NCCc1c[nH]c2ccccc12 [5p] | 3 | –
11 | Cc1cccc(/C=C2\SC(=O)N(CC(=O)NCCc3c[nH]c4ccccc34)C2=O)c1 [5c] | 33.2 | –
12 | O=C(CN1C(=O)S/C(=C\c2ccccc2Cl)C1=O)NCCc1c[nH]c2ccccc12 [5h] | 16.8 | –
13 | O=C(CN1C(=O)S/C(=C\c2ccc(O)cc2)C1=O)NCCc1c[nH]c2ccccc12 [5v] | 24.6 | –
14 | O=C(CN1C(=O)S/C(=C\c2ccc(Br)cc2)C1=O)NCCc1c[nH]c2ccccc12 [5m] | 19.5 | –
